For three compounds, MIC results are on record in US20100087424A1, “TRICYCLIC NITROGEN CONTAINING HETEROCYCLES AS ANTIBACTERIAL AGENTS” (Glaxo Group Limited, priority 2007, published 2010).

The subject of this assay is Mycobacterium tuberculosis H37Rv. Kind of assay: Mycobacterium tuberculosis H37Rv Inhibition Assay (resazurin fluorescence). Type of assay: cell-based. The conditions noted are these: ATCC 25618 / H37Rv, read-out: MIC value, H37Rv strain (ATCC25618), Middlebrook 7H9+ADC, six days at 37° C., resazurin read after 48 hours.

Where a name gives a salt, the structure may show the parent alone.

Consider `O=c1ccc2ccc(F)c3c2n1[C@H](CN1CC[C@H](NCc2cc4c(cn2)OCCO4)[C@H](O)C1)CO3` [Example 20, (3R)-3-({(3R,4S)-4-[(2,3-Dihydro[1,4]dioxino[2,3-c]pyridin-7-ylmethyl)amino]-3-hydroxy-1-piperidinyl}methyl)-10-fluoro-2,3-dihydro-5H-[1,4]oxazino[2,3,4-ij]quinolin-5-one dihydrochloride], for which the MIC is at most 2.8 µg/mL.

`O=c1ccc2ncc(F)c3c2n1[C@H](CN1CC[C@H](NCc2cc4c(cn2)OCCO4)[C@H](O)C1)CC3` [Example 30, 6-({(3R,4S)-4-[(2,3-dihydro[1,4]dioxino[2,3-c]pyridin-7-ylmethyl)amino]-3-hydroxy-1-piperidinyl}methyl)-3-fluoro-5,6-dihydro-4H,8H-pyrido[3,2,1-de]-1,5-naphthyridin-8-one dihydrochloride]: the MIC is at most 2.8 µg/mL.

As to `O=C(O)c1ccccc1.O=c1ccc2ncc(F)c3c2n1[C@H](CN1CCC(NCc2cc4c(nn2)OCCS4)CC1)CO3` [Example 48, (6R)-6-({4-[(6,7-dihydro[1,4]oxathiino[2,3-c]pyridazin-3-ylmethyl)amino]-1-piperidinyl}methyl)-3-fluoro-5,6-dihydro-8H-[1,4]oxazino[2,3,4-de]-1,5-naphthyridin-8-one benzoate], the MIC is at most 2.8 µg/mL.

Usually MIC stands for the lowest concentration that inhibits growth of the organism.
